Test results taken from patent publication US8470829B2 (priority 2004, dated 2013).
Read-outs that look alike come from different tables or passages of the source.

Key:
human androgen receptor [1] = target: T1, human androgen receptor (Homo sapiens, UniProt P10275); test: Measurement of agonist effect on androgen receptor (reporter gene assay, 11A11B2 cells); assay type: cell-based; settings: compound concentration showing a transcription activity of 5% (0.1 nmol/L DHT = 100%, assay medium alone = 0%), 48 hours
T1 construct: expressed in transfected cells
T1 sequence (P10275 1-920): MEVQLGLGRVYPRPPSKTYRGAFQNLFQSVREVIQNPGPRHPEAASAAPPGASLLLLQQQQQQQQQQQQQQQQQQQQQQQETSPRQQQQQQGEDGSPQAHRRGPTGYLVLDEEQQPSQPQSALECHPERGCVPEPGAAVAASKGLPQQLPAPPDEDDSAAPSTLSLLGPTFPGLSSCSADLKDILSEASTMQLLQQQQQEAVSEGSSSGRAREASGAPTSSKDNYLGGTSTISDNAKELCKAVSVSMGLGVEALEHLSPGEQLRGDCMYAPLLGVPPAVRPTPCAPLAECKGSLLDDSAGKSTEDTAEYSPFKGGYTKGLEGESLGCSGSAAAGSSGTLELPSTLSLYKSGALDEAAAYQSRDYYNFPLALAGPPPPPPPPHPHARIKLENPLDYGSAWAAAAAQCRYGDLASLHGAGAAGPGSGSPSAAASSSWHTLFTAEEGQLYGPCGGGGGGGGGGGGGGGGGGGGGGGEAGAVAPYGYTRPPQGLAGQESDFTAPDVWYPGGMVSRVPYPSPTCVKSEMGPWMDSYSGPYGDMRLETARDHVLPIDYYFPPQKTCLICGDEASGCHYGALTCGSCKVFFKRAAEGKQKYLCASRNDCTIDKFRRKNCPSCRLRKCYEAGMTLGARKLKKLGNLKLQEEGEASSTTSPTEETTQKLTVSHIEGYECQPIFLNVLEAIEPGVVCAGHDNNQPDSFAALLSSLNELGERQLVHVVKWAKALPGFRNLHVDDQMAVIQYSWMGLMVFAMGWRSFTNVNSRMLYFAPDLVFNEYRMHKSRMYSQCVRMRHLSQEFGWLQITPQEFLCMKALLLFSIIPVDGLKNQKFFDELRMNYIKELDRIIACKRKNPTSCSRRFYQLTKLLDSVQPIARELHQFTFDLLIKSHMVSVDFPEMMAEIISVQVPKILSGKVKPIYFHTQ
Method: (§1) HeLa cells (purchased from Dai-Nippon Seiyaku K. K.) were cultured overnight in Dulbecco's Modified Eagle Medium containing no phenol red, but containing 3% charcoal-treated fetal bovine serum (hereafter referred to as DCC-FBS) (this medium is hereafter referred to as phenol-red-free DMEM). An MMTV-Luc-Hyg vector (reporter plasmid with mouse mammary tumor virus long terminal repeat, containing an androgen response element and a hygromycin resistance gene: a vector obtained by substituting a chloramphenicol acetyl transferease gene of a GM-CAT vector (A.T.C.C No. 67282) purchased from the A.T.C.C. with the firefly luciferase gene, and inserting a hygromycin resistance gene as a drug resistant gene), and pSG5-hAR-neo (human androgen receptor expression vector: a vector having an androgen receptor gene under the control of the SV40 promoter, and having a neomycin resistance gene inserted as a drug resistance gene) were transfected into the HeLa cells using an FuGENE™ 6 Transfection Reagent (obtained from Roche).
(§2) The clone cells thus obtained (11A11B2 cells) were maintained and propagated using DMEM containing 400 μg/mL neomycin, 200 μg/mL hygromycin and 10% FBS, and were propagated using phenol-red-free DMEM containing 10% DCC-FBS three to four days prior to the performance of an androgen receptor reporter gene assay.
The 11A11B2 cells were inoculated in a white clear-bottomed 96-well microplate (COSTAR) so that the cell concentration was 1.0×10^4/well, and were cultured overnight using phenol-red-free DMEM containing 3% DCC-FBS (hereafter referred to as the assay medium). Samples of the assay medium containing the compounds of the Examples and compounds of the Comparative Examples were added so that the final concentrations of the compounds of the Examples and compounds of the Comparative Examples were 1, 10, 100, 1,000 and 10,000 nmol/L), and the cells were cultured for 48 hours, after which the transcription activity value was measured. The transcription activity was measured using a Bright-Glo™ Luciferase Assay System (Promega).
The transcription activity rates of the compounds of the Examples were calculated from the transcription activity measured by the abovementioned method, with the transcription activity value obtained at 0.1 nmol/L DHT taken as 100%, and the transcription activity value in the case of the assay medium alone taken as 0%. The compound concentration showing a transcription activity of 5% (EC5 value) was calculated from a linear equation for two points on either side of 5%.

human androgen receptor [2] = target: T1, human androgen receptor; test: Investigation of antagonist effect on androgen receptor (reporter gene assay, 11A11B2 cells, with DHT); assay type: cell-based
Method: as §1, §2
The 11A11B2 cells were inoculated in a white clear-bottomed 96-well microplate (COSTAR) so that the cell concentration was 1.0×10^4/well, and were cultured overnight. The assay medium containing DHT was added so that the final concentration of DHT was 0.1 nmol/L, and samples of the assay medium containing the compounds of the Examples or compounds of the Comparative Examples were added so that the final concentrations of the compounds of the Examples or compounds of the Comparative Examples were 1, 10, 100, 1,000 and 10,000 nmol/L, respectively. After culturing for 48, hours, the transcription activity values were measured. The transcription activity was measured using a Bright-Glo™ Luciferase Assay System (Promega).
The transcription activity rates of the compounds of the Examples were calculated from the transcription activity measured by the abovementioned method, with the transcription activity value obtained at 0.1 nmol/L DHT taken as 100%, and the transcription activity value in the case of the assay, medium alone taken as 0%.

[3] = with 0.1 nmol/L DHT, transcription activity rate of Test Example 1 subtracted, 11A11B2 cells, 48 hours, read-out: IC50

Compound | EC5 (human androgen receptor [1]) | IC50 (human androgen receptor [2]; [3]) | IC50 (human androgen receptor [2])
CC1(C)C(=O)N(c2ccc(C#N)c(C(F)(F)F)c2)C(=S)N1c1ccc(S(N)(=O)=O)cc1 [Example 56, 4-[3-(4-cyano-3-trifluoromethylphenyl)-5,5-dimethyl-4-oxo-2-thioxoimidazolidin-1-yl]benzenesulfonamide] | >10 µM | 400 nM | 
CCCOC(=O)Nc1cc(N2C(=O)N(c3ccc(C#N)c(OC)c3)C(=O)C2(C)C)ccc1Cl [Example 26, 4-[3-(3-n-propoxycarbonylamino-4-chlorophenyl)-4,4-dimethyl-2,5-dioxoimidazolidin-1-yl]-2-methoxybenzonitrile] | >10 µM | 200 nM | 
CN(C)CCOC(=O)Nc1nc2cc(N3C(=S)N(c4ccc(C#N)c(Cl)c4)C(=O)C3(C)C)ccc2s1 [Example 64, {5-[3-(3-chloro-4-cyanophenyl)-5,5-dimethyl-4-oxo-2-thioxoimidazolidin-1-yl]benzothiazol-2-yl}carbamic acid 2-dimethylaminoethyl ester] | >10 µM | 200 nM | 
CC1(C)C(=O)N(c2ccc(C#N)c(C(F)(F)F)c2)C(=O)N1c1ccc(NC(=O)CN2CCNCC2)c(Cl)c1 [Example 21, N-{2-chloro-4-[3-(4-cyano-3-trifluoromethylphenyl)-5,5-dimethyl-2,4-dioxoimidazolidin-1-yl]-phenyl}-2-piperazin-1-ylacetamide] | >10 µM | 500 nM | 
CC(=O)N1CCC(N2C(=S)N(c3ccc(C#N)c(Cl)c3)C(=O)C2(C)C)CC1 [Example 6, 4-[3-(1-acetylpiperidin-4-yl)-4,4-dimethyl-5-oxo-2-thioxoimidazolidin-1-yl]-2-chlorobenzonitrile] | >10 µM |  | 200 nM
CN(C)CCOC(=O)Nc1cc(N2C(=O)N(c3ccc(C#N)c(C(F)(F)F)c3)C(=O)C2(C)C)ccc1Cl [Example 28, {2-chloro-5-[3-(4-cyano-3-trifluoromethylphenyl)-5,5-dimethyl-2,4-dioxoimidazolidin-1-yl]phenyl}-carbamic acid 2-dimethylaminoethyl ester] | >10 µM | 500 nM | 
CN(C)CCNC(=O)Nc1nc2cc(N3C(=S)N(c4ccc(C#N)c(Cl)c4)C(=O)C3(C)C)ccc2s1 [Example 61, 1-{5-[3-(3-chloro-4-cyanophenyl)-5,5-dimethyl-4-oxo-2-thioxoimidazolidin-1-yl]benzothiazol-2-yl}-3-(2-dimethylaminoethyl)urea] | >10 µM |  | 300 nM
CN(C)CCOC(=O)Nc1cc(N2C(=O)N(c3ccc(C#N)c(Cl)c3)C(=O)C2(C)C)ccc1Cl [Example 31, {2-chloro-5-[3-(4-cyano-3-chlorophenyl)-5,5-dimethyl-2,4-dioxoimidazolidin-1-yl]phenyl}-carbamic acid 2-dimethylaminoethyl ester] | >10 µM |  | 600 nM
CC(=O)Nc1cc(N2C(=S)N(c3ccc(C#N)c(C(F)(F)F)c3)C(=O)C2(C)C)ccc1Cl [Example 22, 4-[3-(3-acetylamino-4-chlorophenyl)-4,4-dimethyl-5-oxo-2-thioxoimidazolidin-1-yl]-2-trifluoromethylbenzonitrile] | >10 µM | 200 nM | 
COC(=O)Nc1cc(N2C(=O)N(c3ccc(C#N)c(OC)c3)C(=O)C2(C)C)ccc1F [Example 30] | >10 µM | 500 nM | 
CC1(C)C(=O)N(c2ccc(C#N)c(C(F)(F)F)c2)C(=S)N1c1ccc(Cl)c(NC(=O)OCCO)c1 [Example 46, {2-chloro-5-[3-(4-cyano-3-trifluoromethylphenyl)-5,5-dimethyl-4-oxo-2-thioxoimidazolidin-1-yl]phenyl}-carbamic acid 2-hydroxyethyl ester] | >10 µM |  | 300 nM
CC1(C)C(=O)N(c2ccc(C#N)c(C(F)(F)F)c2)C(=O)N1c1ccc(Cl)c(NC(=O)OCCN)c1 [Example 37, {2-chloro-5-[3-(4-cyano-3-trifluoromethylphenyl)-5,5-dimethyl-2,4-dioxoimidazolidin-1-yl]phenyl}-carbamic acid 2-aminoethyl ester] | >10 µM | 700 nM | 
CC1(C)C(=O)N(c2ccc(C#N)c(C(F)(F)F)c2)C(=S)N1c1ccc(Cl)c(NC(=O)OCC(O)CO)c1 (stereo not drawn) [Example 49, {2-chloro-5-[3-(4-cyano-3-trifluoromethylphenyl)-5,5-dimethyl-4-oxo-2-thioxoimidazolidin-1-yl]phenyl}-carbamic acid 2,3-dihydroxypropyl ester] | >10 µM |  | 300 nM
COc1cc(N2C(=O)C(C)(C)N(c3ccc4sc(NC(N)=O)nc4c3)C2=S)ccc1C#N [Example 19, {5-[3-(4-cyano-3-methoxyphenyl)-5,5-dimethyl-4-oxo-2-thioxoimidazolidin-1-yl]-benzothiazol-2-yl}urea] | >10 µM | 200 nM | 
CC1(C)C(=O)N(c2ccc(C#N)c(Cl)c2)C(=S)N1c1ccc2sc(NC(=O)NCCO)nc2c1 [Example 63, 1-{5-[3-(3-chloro-4-cyanophenyl)-5,5-dimethyl-4-oxo-2-thioxoimidazolidin-1-yl]benzothiazol-2-yl}-3-(2-hydroxyethyl)urea] | >10 µM |  | 300 nM
CC1(C)C(=O)N(c2ccc(C#N)c(Cl)c2)C(=S)N1c1ccc2sc(NC(=O)OCCO)nc2c1 [Example 66, {5-[3-(3-chloro-4-cyanophenyl)-5,5-dimethyl-4-oxo-2-thioxoimidazolidin-1-yl]benzothiazol-2-yl}carbamic acid 2-hydroxyethyl ester] | 6 µM |  | 100 nM
CCS(=O)(=O)N1CCC(N2C(=S)N(c3ccc(C#N)c(C(F)(F)F)c3)C(=O)C2(C)C)CC1 [Example 5, 4-[3-(1-ethanesulfonylpiperidin-4-yl)-4,4-dimethyl-5-oxo-2-thioxoimidazolidin-1-yl]-2-trifluoromethylbenzonitrile] | >10 µM |  | 300 nM
CN(C)CCOC(=O)Nc1cc(N2C(=S)N(c3ccc(C#N)c(C(F)(F)F)c3)C(=O)C2(C)C)ccc1Cl [Example 52, {2-chloro-5-[3-(4-cyano-3-trifluoromethylphenyl)-5,5-dimethyl-4-oxo-2-thioxoimidazolidin-1-yl]phenyl}-carbamic acid 2-dimethylaminoethyl ester] | >10 µM |  | 300 nM
